{"source": "patent US9108920B2", "about": "“Diazeniumdiolate heterocyclic derivatives” (Merck Sharp & Dohme Corp., priority 2010, dated 2015)", "system": "Male beagle dogs", "experiment": "canine telemetry protocol, blood pressure reduction efficacy", "assay_type": "in vivo", "details": "change from baseline, 3 mg/kg oral gavage; for ΔPP (mm Hg) 1-6 h / ΔPP (mm Hg) 6-12 h / ΔPP (mm Hg) 12-18 h: pulse pressure; for ΔSBP (mm Hg) 1-6 h / ΔSBP (mm Hg) 6-12 h / ΔSBP (mm Hg) 12-18 h: systolic blood pressure", "method": "Compounds of the invention were evaluated for blood pressure reduction efficacy using the following canine telemetry protocol described below.\nMale beagle dogs (approximately 1-3 years old) with a body weight of between 10 and 16 kg were surgically implanted with DSI radiotelemetry devices (model: TL11M2-D70-PCT). Briefly, under an inhalant anesthesia, isoflurane/oxygen mixture (1-3.5%/to effect), the body of the telemetry device was positioned and secured intra-abdominally. Subsequently, the arterial catheter of the telemetry device was passed subcutaneously to the inguinal area and introduced into the femoral artery and advanced to the level of the descending aorta. The catheter was secured with 2-0 silk ligatures. The muscle and underlying fascia was closed over the catheter using absorbable suture and the skin was closed using non-absorbable suture. The animals were allowed a minimum recovery period of 2 weeks between surgery and the evaluation of test compounds.\nCompound evaluation consisted of a 3 day paradigm at a 3 mg/kg dose. On the first day, no compounds were administered during a 24 hour period of baseline data collection. Blood pressure and heart rate data were collected continuously for one minute periods at 10 minute intervals. On the days of compound administration half the animals received test article with the other half receiving the vehicle used for compound formulation. All test materials were administered by oral gavage in a volume of 1 mL/kg. Data are expressed either as raw values (mm Hg or beats per minute) or as the change from baseline (average value for about 12 hours in low activity period prior to dosing).", "data": [{"molecule": "CCN(/[N+]([O-])=N/OC1CCN(c2ccc(C#N)cn2)CC1)C(C)(C)C", "note": "[Example 48, O^2-[1-(5-cyanopyridin-2-yl)piperidin-4-yl]1-(N-tert-butyl-N-ethylamino)diazen-1-ium-1,2-diolate]", "values": [{"measurement": "ΔPP (mm Hg) 1-6 h", "value": "−17", "unit": "mm Hg"}, {"measurement": "ΔPP (mm Hg) 6-12 h", "value": "−16", "unit": "mm Hg"}, {"measurement": "ΔPP (mm Hg) 12-18 h", "value": "−15", "unit": "mm Hg"}, {"measurement": "ΔSBP (mm Hg) 1-6 h", "value": "−16", "unit": "mm Hg"}, {"measurement": "ΔSBP (mm Hg) 6-12 h", "value": "−12", "unit": "mm Hg"}, {"measurement": "ΔSBP (mm Hg) 12-18 h", "value": "−11", "unit": "mm Hg"}]}, {"molecule": "CCN(/[N+]([O-])=N/OC1CCN(C(=O)OC(C)(C)C)CC1)C(C)(C)C", "note": "[Example 6, O^2-[1-(tert-butoxycarbonyl)piperidin-4-yl]1-(N-tert-butyl-N-ethylamino)diazen-1-ium-1,2-diolate]", "values": [{"measurement": "ΔPP (mm Hg) 1-6 h", "value": "−19", "unit": "mm Hg"}, {"measurement": "ΔPP (mm Hg) 6-12 h", "value": "−17", "unit": "mm Hg"}, {"measurement": "ΔPP (mm Hg) 12-18 h", "value": "−15", "unit": "mm Hg"}, {"measurement": "ΔSBP (mm Hg) 1-6 h", "value": "−25", "unit": "mm Hg"}, {"measurement": "ΔSBP (mm Hg) 6-12 h", "value": "−16", "unit": "mm Hg"}, {"measurement": "ΔSBP (mm Hg) 12-18 h", "value": "−9", "unit": "mm Hg"}]}, {"molecule": "CCN(/[N+]([O-])=N/O[C@@H]1CCN(CC(F)(F)F)C1)C(C)(C)C", "note": "[Example 32, O^2-[(3R)-1-(2,2,2-trifluoroethyl)pyrrolidin-3-yl]-1-(N-tert-butyl-N-ethylamino)diazen-1-ium-1,2-diolate]", "values": [{"measurement": "ΔPP (mm Hg) 1-6 h", "value": "−23", "unit": "mm Hg"}, {"measurement": "ΔPP (mm Hg) 6-12 h", "value": "−15", "unit": "mm Hg"}, {"measurement": "ΔPP (mm Hg) 12-18 h", "value": "−10", "unit": "mm Hg"}, {"measurement": "ΔSBP (mm Hg) 1-6 h", "value": "−32", "unit": "mm Hg"}, {"measurement": "ΔSBP (mm Hg) 6-12 h", "value": "−16", "unit": "mm Hg"}, {"measurement": "ΔSBP (mm Hg) 12-18 h", "value": "−5", "unit": "mm Hg"}]}, {"molecule": "CCN(/[N+]([O-])=N/O[C@@H]1CCN(C(=O)NC(C)(C)C)C1)C(C)(C)C", "note": "[Example 59, O^2-[(3R)-1-(tert-butylcarbamoyl)pyrrolidin-3-yl]1-(N-tert-butyl-N-ethylamino)diazen-1-ium-1,2-diolate]", "values": [{"measurement": "ΔPP (mm Hg) 1-6 h", "value": "−17", "unit": "mm Hg"}, {"measurement": "ΔPP (mm Hg) 6-12 h", "value": "−16", "unit": "mm Hg"}, {"measurement": "ΔPP (mm Hg) 12-18 h", "value": "−15", "unit": "mm Hg"}, {"measurement": "ΔSBP (mm Hg) 1-6 h", "value": "−19", "unit": "mm Hg"}, {"measurement": "ΔSBP (mm Hg) 6-12 h", "value": "−18", "unit": "mm Hg"}, {"measurement": "ΔSBP (mm Hg) 12-18 h", "value": "−17", "unit": "mm Hg"}]}, {"molecule": "CN(/[N+]([O-])=N/O[C@@H]1CCN(C(=O)OC(C)(C)C)C1)C(C)(C)C", "note": "[Example 1, O^2-[(3R)-1-(tert-butoxycarbonyl)pyrrolidin-3-yl]1-(N-tert-butyl-N-methylamino)diazen-1-ium-1,2-diolate]", "values": [{"measurement": "ΔPP (mm Hg) 1-6 h", "value": "−16", "unit": "mm Hg"}, {"measurement": "ΔPP (mm Hg) 6-12 h", "value": "−17", "unit": "mm Hg"}, {"measurement": "ΔPP (mm Hg) 12-18 h", "value": "−15", "unit": "mm Hg"}, {"measurement": "ΔSBP (mm Hg) 1-6 h", "value": "−16", "unit": "mm Hg"}, {"measurement": "ΔSBP (mm Hg) 6-12 h", "value": "−15", "unit": "mm Hg"}, {"measurement": "ΔSBP (mm Hg) 12-18 h", "value": "−11", "unit": "mm Hg"}]}, {"molecule": "CN(/[N+]([O-])=N/O[C@@H]1CCN(Cc2ccccc2)C1)C(C)(C)C", "note": "[Example 28, O^2-[(3R)-1-benzylpyrrolidin-3-yl]1-(N-tert-butyl-N-methylamino)diazen-1-ium-1,2-diolate]", "values": [{"measurement": "ΔPP (mm Hg) 1-6 h", "value": "−12", "unit": "mm Hg"}, {"measurement": "ΔPP (mm Hg) 6-12 h", "value": "−10", "unit": "mm Hg"}, {"measurement": "ΔPP (mm Hg) 12-18 h", "value": "−5", "unit": "mm Hg"}, {"measurement": "ΔSBP (mm Hg) 1-6 h", "value": "−21", "unit": "mm Hg"}, {"measurement": "ΔSBP (mm Hg) 6-12 h", "value": "−14", "unit": "mm Hg"}, {"measurement": "ΔSBP (mm Hg) 12-18 h", "value": "−7", "unit": "mm Hg"}]}, {"molecule": "O^2-[(3R)-1-(3-methoxyphenyl)-2-oxopyrrolidin-3-yl]1-(N-tert-butyl-N-methylamino)diazen-1-ium-1,2-diolate [Example 64]", "values": [{"measurement": "ΔPP (mm Hg) 1-6 h", "value": "−12", "unit": "mm Hg"}, {"measurement": "ΔPP (mm Hg) 6-12 h", "value": "−15", "unit": "mm Hg"}, {"measurement": "ΔPP (mm Hg) 12-18 h", "value": "−13", "unit": "mm Hg"}, {"measurement": "ΔSBP (mm Hg) 1-6 h", "value": "−13", "unit": "mm Hg"}, {"measurement": "ΔSBP (mm Hg) 6-12 h", "value": "−12", "unit": "mm Hg"}, {"measurement": "ΔSBP (mm Hg) 12-18 h", "value": "−11", "unit": "mm Hg"}]}]}
